d = 2'-deoxy (DNA); r = 2'-OH (RNA)
Key:
[1] = tested on: mTOR gene; assay: mTOR expression after mTOR siRNA and/or STAT3 siRNA transfection of A549, real-time PCR; assay type: cell-based, human; conditions: A549, 48 hours after transfection, relative to control siRNA nc2 = 1.0000
[2] = tested on: STAT3 gene; assay: STAT3 expression after mTOR siRNA and/or STAT3 siRNA transfection of A549, real-time PCR; assay type: cell-based, human; conditions: A549, 48 hours after transfection, relative to control siRNA nc2 = 1.0000

Substance: siSTAT3: siRNA targeting the only STAT3; SEQ ID NOS: 24 and 25 (chain 1 UGUUCUCUGAGACCCAUGATT; chain 2 UCAUGGGUCUCAGAGAACATT; sugars from the 5' end r19 d2, backbone not given here)
- mTOR expression level [1]: 1.0507
- STAT3 expression level [2]: 0.6074

Substance: simTOR: siRNA targeting the only mTOR; SEQ ID NOs: 22 and 23 (chain 1 GUGGAAACAGGACCCAUGATT; chain 2 UCAUGGGUCCUGUUUCCACTT; sugars from the 5' end r19 d2, backbone not given here)
- mTOR expression level [1]: 0.1980
- STAT3 expression level [2]: 1.0705

— US11634712B2, “Nucleic acid simultaneously inhibiting expression of mTOR gene and STAT3 gene” (CURIGIN CO., LTD., priority 2017, dated 2023)
